Source: the NIST ThermoML archive (doi:10.1016/j.jct.2015.08.033)

Assay: mn = molality of the nth substance listed, in mol/kg
Settings: 100 kPa, Liquid; for speed of sound: Frequency=3 MHz, Sing-around technique in a fixed-path interferometer; for mass density: Vibrating tube method

O=S(=O)([O-])C(F)(F)F.O=S(=O)([O-])C(F)(F)F.[Mg+2] [magnesium triflate] + CN(C)C=O
Settings	mass density, 298.15 K [kg/m3]	mass density, 303.15 K [kg/m3]	mass density, 308.15 K [kg/m3]	mass density, 313.15 K [kg/m3]	mass density, 318.15 K [kg/m3]	speed of sound, 298.15 K [m/s]	speed of sound, 303.15 K [m/s]	speed of sound, 308.15 K [m/s]	speed of sound, 313.15 K [m/s]	speed of sound, 318.15 K [m/s]
m1 = 0.01036	946.019	941.245	936.47	931.673	926.87	–	–	–	–	–
m1 = 0.01706	947.369	942.601	937.828	933.038	928.233	1457.4	1438.2	1418.9	1399.7	1380.5
m1 = 0.0217	948.297	943.537	938.762	933.973	929.172	1457.3	1438.2	1418.9	1399.8	1380.7
m1 = 0.03662	951.268	946.512	941.741	936.956	932.159	1457.3	1438.2	1419.1	1400	1380.9
m1 = 0.0512	954.144	949.392	944.627	939.848	935.055	1457.3	1438.2	1419.1	1400.1	1381.1
m1 = 0.06466	956.788	952.038	947.275	942.499	937.711	1457.2	1438.2	1419.1	1400.2	1381.2
m1 = 0.082	960.152	955.393	950.635	945.853	941.072	1457.1	1438.1	1419.1	1400.2	1381.3
m1 = 0.102	964.032	959.291	954.537	949.768	944.991	1456.9	1438	1419.1	1400.2	1381.5
m1 = 0.1234	968.107	963.366	958.615	953.853	949.079	1456.7	1437.9	1419	1400.3	1381.5
m1 = 0.1544	974.074	969.343	964.6	959.846	955.083	1456.4	1437.6	1418.9	1400.2	1381.6
